Peptide text beside a SMILES is read from it.
What was measured:
[1] = tested on: Vero cell line; format: cell-based, Cercopithecus aethiops
Description: MTT assay: cells of Vero cell line (ATCC CRL-1586™ kidney epithelial cells of Cercopithecus aethiops) were cultivated at the appropriate growth conditions as recommended by the supplier in 96-well plates at a concentration of 2 × 10^4 cells/well and treated with the peptides according to the invention at different concentrations diluted in growth medium (1, 5, 10, 20, 50, 100, 250 mM) for 3, 10 and 24 hours. Subsequently, the medium was aspirated and the cells incubated at 37 °C for 3 hours with 10 µl of MTT (bromide of 3-(4,5-dimethylthiazol-2-yl)-2,5-diphenyltetrazolium), a vital dye able to enter the mitochondria and be metabolized by succinate dehydrogenase complex to formazan salts, determining a violet coloration in those cells. Afterward, the supernatant was discharged and isopropanol (100 uL) was added to each well to dissolve the produced salts. The reaction was allowed to proceed by incubation at room temperature in tilting agitation for 20 minutes, then spectrophotometric reading was performed at 570nm to assess cell viability in terms of proliferative inhibition and cell growth.

[2] = tested on: Human red blood cells; format: cell-based
Description: Human red blood cells from healthy donors have been isolated and used to performed the hemolytic assay. The peptide fragments of lactoferrin of SEQ ID No. 1 and SEQ ID No. 2 at different concentrations (1, 5, 10, 20, 50, 100, 250 mM) were added to the suspension of erythrocytes to a final volume of 100 µl. Samples were incubated under stirring at 37 °C for 60 min. The hemoglobin release was monitored by measuring the absorbance (Abs) of the supernatant at 540 nm. As negative control, i.e. zero hemolysis (blank), red cells resuspended in PBS were used, whereas completely lysed erythrocytes were used as a positive control for 100% hemolysis. The percentage of hemolysis was calculated using the following equation: % Hemolysis = [(SampleAbs−negativecontrolAbs)/(positivecontrolAbs−negativecontrolAbs)] × 100. [formula]

SMILES	toxicity, measured as a function of cellular integrity [1] [%]	toxicity towards the erythrocytes (hemolysis) [2]
CC(C)C[C@H](NC(=O)CNC(=O)[C@H](CS)NC(=O)[C@H](CCCCN)NC(=O)CNC(=O)[C@H](C)NC(=O)[C@@H](NC(=O)[C@@H](N)Cc1ccc(O)cc1)[C@@H](C)O)C(=O)N[C@H](C(=O)N1CCC[C@H]1C(=O)N[C@H](C(=O)N[C@@H](CC(C)C)C(=O)N[C@@H](C)C(=O)N[C@@H](CCC(=O)O)C(=O)N[C@@H](CC(N)=O)C(=O)N[C@@H](CCCNC(=N)N)C(=O)N[C@@H](CCCCN)C(=O)N[C@H](C(=O)N[C@@H](CO)C(=O)N[C@@H](CCCCN)C(=O)N[C@@H](Cc1ccc(O)cc1)C(=O)N[C@@H](CO)C(=O)N[C@@H](CO)C(=O)N[C@@H](CC(C)C)C(=O)N[C@@H](CC(=O)O)C(=O)N[C@@H](CS)C(=O)N[C@H](C(=O)N[C@@H](CC(C)C)C(=O)N[C@@H](CCCNC(=N)N)C(=O)N1CCC[C@H]1C(=O)O)C(C)C)[C@@H](C)O)C(C)C)C(C)C [SEQ ID No. 2] (H-YTAGKCGLVPVLAENRKTSKYSSLDCVLRP-OH)	≤ 20	not toxic
CC(C)C[C@H](NC(=O)[C@H](CCC(N)=O)NC(=O)[C@H](Cc1ccccc1)NC(=O)[C@H](CO)NC(=O)[C@H](CCCNC(=N)N)NC(=O)[C@H](CO)NC(=O)[C@H](CCCCN)NC(=O)[C@H](CC(N)=O)NC(=O)[C@H](CCCCN)NC(=O)CNC(=O)[C@H](Cc1ccccc1)NC(=O)[C@@H](N)CCCCN)C(=O)N[C@@H](Cc1ccccc1)C(=O)NCC(=O)N[C@@H](CO)C(=O)N1CCC[C@H]1C(=O)N1CCC[C@H]1C(=O)NCC(=O)N[C@@H](CCC(N)=O)C(=O)N[C@@H](CCCNC(=N)N)C(=O)N[C@@H](CC(=O)O)C(=O)N[C@@H](CC(C)C)C(=O)N[C@@H](CC(C)C)C(=O)N[C@@H](Cc1ccccc1)C(=O)N[C@@H](CCCCN)C(=O)N[C@@H](CC(=O)O)C(=O)O [SEQ ID No. 1] (H-KFGKNKSRSFQLFGSPPGQRDLLFKD-OH)	≤ 20	not toxic
